Reference: patent US20240251792A1, “WEED CONTROL METHOD” (SYNGENTA CROP PROTECTION AG, priority 2021, published 2024)
Read-outs that look alike come from different tables or passages of the source.

What was measured:
Format in all cases: in vivo
[1] = test system: ECHCG; assay: Pre-emergence biological efficacy (Table 3); details: Echinochloa crus-galli, 312 h, after 13 days, read-out: evaluation (100=total damage to plant; 0=no damage to plant)
Procedure, shortened: (§1)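 Pre-emergence spray one day after sowing; the compound, made up as a 50 g/l AMA-based formulation, was diluted with 0.2% Genapol X080. Visual damage rating 13 days later on a 0-100 scale, with glasshouse conditions of 24/18° C day/night and 15 h light.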

[2] = test system: IPOHE; assay: Pre-emergence biological efficacy (Table 3); details: Ipomoea hederacea, 312 h, after 13 days, read-out: evaluation (100=total damage to plant; 0=no damage to plant)
Procedure, shortened: as §1

[3] = test system: AMAPA; assay: Pre-emergence biological efficacy (Table 3); details: 312 h, after 13 days, read-out: evaluation (100=total damage to plant; 0=no damage to plant)
Procedure, shortened: as §1

[4] = test system: SETFA; assay: Pre-emergence biological efficacy (Table 3); details: Setaria faberi, 312 h, after 13 days, read-out: evaluation (100=total damage to plant; 0=no damage to plant)
Procedure, shortened: as §1

[5] = test system: AMARE; assay: Pre-emergence biological efficacy (Table 3); details: Amaranthus retroflexus, 312 h, after 13 days, read-out: evaluation (100=total damage to plant; 0=no damage to plant)
Procedure, shortened: as §1

[6] = test system: ZEAMX; assay: Pre-emergence biological efficacy (Table 3); details: 312 h, after 13 days, read-out: evaluation (100=total damage to plant; 0=no damage to plant)
Procedure, shortened: as §1

[7] = test system: weeds and/or crops; assay: Post-emergence biological efficacy (Table 4); details: 312 h, evaluated after 13 days
Procedure, shortened: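 Weeds and crops were grown 14 days in a glasshouse, then sprayed post-emergence with compound formulated in acetone/F50 and diluted in 0.2% Genapol X080 to the final dose. Damage was scored after 13 days on a 0–100 scale, where 100 is total damage.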

[8] = AMAPA, read-out: damage to plant AMAPA (100=total damage; 0=no damage)
[9] = ZEAMX, read-out: damage to plant ZEAMX (100=total damage; 0=no damage)
[10] = Amaranthus retroflexus, AMARE, read-out: damage to plant AMARE (100=total damage; 0=no damage)
[11] = Echinochloa crus-galli, ECHCG, read-out: damage to plant ECHCG (100=total damage; 0=no damage)
[12] = Ipomoea hederacea, IPOHE, read-out: damage to plant IPOHE (100=total damage; 0=no damage)
[13] = Setaria faberi, SETFA, read-out: damage to plant SETFA (100=total damage; 0=no damage)

Row | SMILES | pest or weed control at 1000 g/ha [1] | pest or weed control at 1000 g/ha [2] | pest or weed control at 1000 g/ha [3] | pest or weed control at 1000 g/ha [4] | pest or weed control at 1000 g/ha [5] | plant injury at 1000 g/ha [6] | pest or weed control at 1000 g/ha [7, 8] | pest or weed control at 1000 g/ha [7, 9] | pest or weed control at 1000 g/ha [7, 10] | pest or weed control at 1000 g/ha [7, 11] | pest or weed control at 1000 g/ha [7, 12] | pest or weed control at 1000 g/ha [7, 13] | also measured
1 | N#Cc1c(F)cccc1C(F)(F)C(=O)O [Compound 1-261, 2-(2-Cyano-3-fluoro-phenyl)-2,2-difluoro-acetic acid] | 10% | 40% | 50% | 10% | 40% | 0% | 70% | 20% | 70% | 0% | 40% | 30% | 
2 | O=C(O)C(F)(F)c1cccc2c1CCO2 [Compound 1-420, 2-(2,3-Dihydrobenzofuran-4-yl)-2,2-difluoro-acetic acid] | 0% | 70% | 60% | 0% | 80% | 10% | 70% | 10% | 80% | 10% | 70% | 10% | 
3 | O=C(O)C(F)(F)c1cccc(Cl)c1C1CC1 [Compound 1-428, 2-(3-Chloro-2-cyclopropyl-phenyl)-2,2-difluoro-acetic acid] | 0% | 80% | 90% | 0% | 80% | 0% | 90% | 10% | 90% | 10% | 90% | 0% | 
4 | COC(=O)c1c(Cl)cccc1C(F)(F)C(=O)O [Compound 1-444, 2-(3-Chloro-2-methoxycarbonyl-phenyl)-2,2-difluoro-acetic acid] | 0% | 50% | 60% | 0% | 40% | 0% | 60% | 10% | 70% | 10% | 50% | 20% | 
5 | O=C(O)C(F)(F)c1cccc(Cl)c1OC(F)F [Compound 1-452, 2-[3-Chloro-2-(difluoromethoxy)phenyl]-2,2-difluoro-acetic acid] | 10% | 70% | 50% | 30% | 50% | 30% | 80% | 40% | 80% | 50% | 70% | 50% | 
6 | COc1c(F)ccc(C(F)(F)C(=O)O)c1F [Compound 1-458, 2-(2,4-Difluoro-3-methoxy-phenyl)-2,2-difluoro-acetic acid] | 0% | 80% | 90% | 0% | 90% | 20% | 90% | 40% | 90% | 90% | 70% | 90% | 
7 | O=C(O)C(F)(F)c1cccc(OC(F)F)c1Cl [Compound 1-459, 2-[2-Chloro-3-(difluoromethoxy)phenyl]-2,2-difluoro-acetic acid] | 50% | 90% | 80% | 100% | 70% | 0% | 80% | 20% | 80% | 40% | 90% | 60% | 
8 | N#Cc1c(F)ccc(C(F)(F)C(=O)O)c1Cl [Compound 1-460, 2-(2-Chloro-3-cyano-4-fluoro-phenyl)-2,2-difluoro-acetic acid] | 0% | 70% | 90% | 10% | 80% | 10% | 90% | 10% | 90% | 20% | 60% | 40% | 
9 | COc1ccc(C(F)(F)C(=O)O)c([N+](=O)[O-])c1F [Compound 1-461, 2,2-Difluoro-2-(3-fluoro-4-methoxy-2-nitro-phenyl)acetic acid] | 0% | 20% | 30% | 30% | 40% | 10% | 80% | 0% | 80% | 10% | 20% | 30% | 
10 | Cc1cccc(C(F)(F)C(=O)O)c1C#N [Compound 1-462, 2-(2-Cyano-3-methyl-phenyl)-2,2-difluoro-acetic acid] | 0% | 40% | 30% | 0% | 50% | 0% | 80% | 10% | 80% | 0% | 70% | 20% | 
11 | COc1c(C)cccc1C(F)(F)C(=O)O [Compound 1-463, 2,2-Difluoro-2-(2-methoxy-3-methyl-phenyl)acetic acid] | 0% | 50% | 60% | 0% | 50% | 0% | 70% | 10% | 80% | 10% | 70% | 30% | 
12 | COc1c(C(F)(F)F)cccc1C(F)(F)C(=O)O [Compound 1-464, 2,2-Difluoro-2-[2-methoxy-3-(trifluoromethyl)phenyl]acetic acid] |  |  |  |  |  |  |  |  |  |  |  |  | pest or weed control at 250 g/ha ([1]; 250 g/ha): 10%; pest or weed control at 250 g/ha ([2]; 250 g/ha): 50%; pest or weed control at 250 g/ha ([3]; 250 g/ha): 60%; pest or weed control at 250 g/ha ([4]; 250 g/ha): 30%; pest or weed control at 250 g/ha ([5]; 250 g/ha): 40%; plant injury at 250 g/ha ([6]; 250 g/ha): 20%; pest or weed control at 250 g/ha [7, 8]: 80%; pest or weed control at 250 g/ha [7, 9]: 10%; pest or weed control at 250 g/ha [7, 10]: 80%; pest or weed control at 250 g/ha [7, 11]: 70%; pest or weed control at 250 g/ha [7, 12]: 60%; pest or weed control at 250 g/ha [7, 13]: 70%
